Measured values: US20140235544A1, “DISEASE TREATMENT VIA ANTIMICROBIAL PEPTIDES OR THEIR INHIBITORS” (priority 2013, published 2014)

Experiments:
[1] = system: psoriatic lesions in a human subject; assay: Human in-vivo psoriatic lesion treatment
Method: Human in-vivo psoriatic lesion treatment: Cathelicidin 10 ug/ml or human beta defensin-2 diluted in PBS containing 0.1% BSA, or buffer carrier was applied to lesions in a human subject in a blind trial.

BETATC beta cell line = assay: Thymidine incorporation cell proliferation assay; format: cell-based, mouse; settings: 2 microgram/ml, 3.5 days
Method: Murine beta cell line were treated for 3.5 days with LL-37 at 2 microgram/ml (red/dark bars) and compared to PBS control ([…]). Cell proliferation was estimated by measuring [3(H)]-thymidine incorporation and was expressed as percent of control untreated cells. A representative experiment is shown.
The antimicrobial peptides human cathelicidin LL-37: […] was obtained from AnaSpec, USA (Catalogue numbers: 61302). Cathelicidin at 2 ug/ml was added to the plate and compared with control.
Cell proliferation was evaluated by measuring [3(H)]-thymidine incorporation into DNA. Cells were pulsed with [3(H)]-thymidine (1 microcurie/mL, ICN, Irvine, Calif.) for 1 hour, at 37 degrees centigrade. After incubation, cells were washed 3 times with PBS, incubated for 15 minutes at room temperature in 5% trichloroacetic acid and solubilized in 1% triton X-100. The radioactivity incorporated into the cells was counted in the [3(H)]-window of a Tricarb liquid scintillation counter. Mean values were determined from measurements of triplicate samples under each experimental condition for each experiment. Thymidine incorporation was determined as number of disintegrations per minute (DPM) per mg of protein.

[2] = Infection and immunity, November 1999; cited from earlier work
[3] = 10 ug/ml applied to lesion, 5 days treatment

Row | Substance | change of skin psoriatic lesion [1, 3] | beta cell proliferation ([3(H)]-thymidine incorporation) vs PBS control (BETATC beta cell line) | half-life in blood of humans [2] | change of skin psoriatic lesion ([1]; applied to lesion, seven week course of treatment)
1 | LLGDFFRKSKEKIGKEFKRIVQRIKDFLRNLVPRTES [LL-37] | slight improvement | significant BETATC beta cell line proliferation | approximately 3.4 days | 
2 | SKEKIGKEFKRIVQRIKDFLRNLVPRTES (listed as Homo sapiens) [SK29, cathelicidin fragment, 29 amino acids] | slight improvement |  |  | 
3 | human beta defensin-2 [reference compound] |  |  |  | worsening
